Measurements taken from PubChem BioAssay (NCI).
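Briefly, cells in 96-well plates were exposed to five compound concentrations for 48 h, and endpoints were estimated by linear interpolation. TGI denotes the concentration required for complete inhibition of growth.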

Experiments:
Experiment in all cases: inhibition of tumour cell growth, NCI panel, 48 h
MDA-MB-435 = test system: MDA-MB-435
M14 melanoma = test system: M14 melanoma
SNB-75 CNS = test system: SNB-75 CNS
T-47D breast = test system: T-47D breast
HCT-116 colon = test system: HCT-116 colon
EKVX NSCLC = test system: EKVX NSCLC
OVCAR-4 ovarian = test system: OVCAR-4 ovarian
UACC-62 melanoma = test system: UACC-62 melanoma
IGROV1 ovarian = test system: IGROV1 ovarian
SF-268 CNS = test system: SF-268 CNS
CCRF-CEM leukemia = test system: CCRF-CEM leukemia

SMILES	TGI (MDA-MB-435) [µM]	TGI (M14 melanoma) [µM]	TGI (SNB-75 CNS) [µM]	TGI (T-47D breast) [µM]	TGI (HCT-116 colon) [µM]	TGI (EKVX NSCLC) [µM]	TGI (OVCAR-4 ovarian) [µM]	TGI (UACC-62 melanoma) [µM]	TGI (IGROV1 ovarian) [µM]	TGI (SF-268 CNS) [µM]	TGI (CCRF-CEM leukemia) [µM]
O=C1c2ccccc2-c2ccc(N=Nc3c(O)ccc4ccccc34)cc21	> 100	> 100	> 100	> 100	> 100	> 100	> 100	> 100	> 100	> 100	35
CC1=NN(C(=O)c2ccccc2O)C(=O)/C1=C/c1ccccc1O	> 100	48.4	> 67.7	15.6	> 29.9	41.6	68.3	7.2	3.63	> 75.4	> 100
CC(=O)NC1C(O)C(O)C(CO)OC1n1ncc(=O)[nH]c1=O (stereo not given)	> 100	> 100	> 100	> 100	> 100	> 100	> 100	> 100	> 100	> 100	> 100
O=c1[nH]c(=S)[nH]n1C(=S)n1[nH]c(=S)[nH]c1=O	> 100	> 100	> 100	> 100	> 100	> 100	> 100	> 100	> 100	> 100	> 100
CC1=C(C(=O)NCCc2ccccc2)CC(C(=O)NCCc2ccccc2)=C(C)N1	> 100	> 100	69.2	> 100	> 100	> 100	> 100	> 100	> 100	> 100	76.5
O=c1oc2ccccc2nc1/C=C(\O)c1ccc([N+](=O)[O-])cc1	> 100	> 100	> 100	> 100	> 100	> 100	> 100	> 100	> 100	> 100	> 100
CN(C)CCCCN1c2ccccc2Sc2cc(N=[N+]=[N-])ccc21	3.09	3.08	4.8	4.86	3.32	15.5	6.35	3.31	3.43	4.62	4.11
CCOC(=O)C1C(c2ccc(OC)cc2)c2c([nH][nH]c2=O)CC1(O)OCC (stereo not given)	> 100	> 100	> 100	> 100	> 100	> 100	> 100	> 100	> 100	> 100	> 100
[O-][n+]1onc(-c2ccccc2)c1CN1CCOCC1	> 100	> 100	> 100	> 100	> 100	> 100	> 100	> 100	> 100	> 100	> 100
CNn1c(C)n[nH]c1=O	> 100	> 100	85.1	> 100	> 100	> 100	> 100	> 100	> 100	> 100	> 100
Nc1cn(Cc2ccccc2)c2nc(/C=C3/C=CC=CC3=O)c(O)n12	> 100	> 100	> 100	> 100	> 100	> 100	> 100	> 100	> 100	> 100	> 100
CCCCC(=O)NC1(c2cc3ccccc3s2)CCCCC1	> 100	> 100	> 100	> 100	> 100	> 100	> 100	> 100	> 100	> 100	> 100
CCOC(=O)/C(C#N)=C1\c2c([nH]c(=S)[nH]c2=O)Oc2ccc3ccccc3c21	> 100	> 100	52	> 100	> 100	> 100	> 100	> 100	> 100	> 100	4.26
Cc1cccc(C)c1NC(=S)NC=C(C(N)=O)C(N)=O	> 100	> 100	> 100	> 100	> 100	> 100	> 100	> 100	> 100	> 100	> 100
COc1ccc(-c2c(CN3CCOCC3)sc3nc4ccccc4n23)cc1	14.4	> 100	> 100	> 100	> 57	> 57.4	> 100	> 100	> 86.8	98.2	56.2
